{"source": "paper PMC11946679", "about": "(Toxics, 2025)", "tested_on": "human peripheral blood lymphocytes", "assay": "CBMN cytome assay: lymphocyte proliferation (M1-M4, CBPI, RI)", "assay_type": "cell-based", "conditions": "3 h", "method": "On the same slides, parameters of cell proliferation and cytotoxicity were also evaluated, in line with the OECD protocol.", "key": {"[1]": {"conditions": "1× + IRI 9.0 mg/L, propolis 1.36 mg/L, galangin 0.02 mg/L"}, "[2]": {"conditions": "1× alone, propolis 1.36 mg/L, galangin 0.02 mg/L"}, "[3]": {"conditions": "5× + IRI 9.0 mg/L, propolis 6.8 mg/L, galangin […]"}, "[4]": {"conditions": "5× alone, propolis 6.8 mg/L, galangin […]"}, "[5]": {"conditions": "10× + IRI 9.0 mg/L, propolis 13.6 mg/L, galangin 0.22 mg/L"}, "[6]": {"conditions": "10× alone, propolis 13.6 mg/L, galangin 0.22 mg/L"}}}
{"smiles": "O=c1c(O)c(-c2ccccc2)oc2cc(O)cc(O)c12", "note": "[Galangin]", "values": [{"measurement": "% of Cells with 1 to 4 Nuclei M1", "setting": "[1]", "result": "24.5 ^↑L %"}, {"measurement": "% of Cells with 1 to 4 Nuclei M2", "setting": "[1]", "result": "72.3 ^H %"}, {"measurement": "% of Cells with 1 to 4 Nuclei M3", "setting": "[1]", "result": "1.4 ^↓ %"}, {"measurement": "% of Cells with 1 to 4 Nuclei M4", "setting": "[1]", "result": "1.8 ^↓ %"}, {"measurement": "CBPI", "setting": "[1]", "result": 1.788}, {"measurement": "Replication Index (%)", "setting": "[1]", "result": 80.1, "unit": "%"}, {"measurement": "% of Cells with 1 to 4 Nuclei M1", "setting": "[2]", "result": 13.4, "unit": "%"}, {"measurement": "% of Cells with 1 to 4 Nuclei M2", "setting": "[2]", "result": 74.7, "unit": "%"}, {"measurement": "% of Cells with 1 to 4 Nuclei M3", "setting": "[2]", "result": 4.0, "unit": "%"}, {"measurement": "% of Cells with 1 to 4 Nuclei M4", "setting": "[2]", "result": 7.9, "unit": "%"}, {"measurement": "CBPI", "setting": "[2]", "result": 1.986}, {"measurement": "Replication Index (%)", "setting": "[2]", "result": 100.3, "unit": "%"}, {"measurement": "% of Cells with 1 to 4 Nuclei M1", "setting": "[3]", "result": "22.6 ^↑L %"}, {"measurement": "% of Cells with 1 to 4 Nuclei M2", "setting": "[3]", "result": "74.2 ^H %"}, {"measurement": "% of Cells with 1 to 4 Nuclei M3", "setting": "[3]", "result": "1.6 ^↓ %"}, {"measurement": "% of Cells with 1 to 4 Nuclei M4", "setting": "[3]", "result": "1.6 ^↓ %"}, {"measurement": "CBPI", "setting": "[3]", "result": 1.806}, {"measurement": "Replication Index (%)", "setting": "[3]", "result": 82.0, "unit": "%"}, {"measurement": "% of Cells with 1 to 4 Nuclei M1", "setting": "[4]", "result": 13.3, "unit": "%"}, {"measurement": "% of Cells with 1 to 4 Nuclei M2", "setting": "[4]", "result": "76.9 ^↑ %"}, {"measurement": "% of Cells with 1 to 4 Nuclei M3", "setting": "[4]", "result": "3.3 ^↓ %"}, {"measurement": "% of Cells with 1 to 4 Nuclei M4", "setting": "[4]", "result": 6.5, "unit": "%"}, {"measurement": "CBPI", "setting": "[4]", "result": 1.967}, {"measurement": "Replication Index (%)", "setting": "[4]", "result": 98.3, "unit": "%"}, {"measurement": "% of Cells with 1 to 4 Nuclei M1", "setting": "[5]", "result": "23.1 ^↑L %"}, {"measurement": "% of Cells with 1 to 4 Nuclei M2", "setting": "[5]", "result": "74.6 ^H %"}, {"measurement": "% of Cells with 1 to 4 Nuclei M3", "setting": "[5]", "result": "1.0 ^↓L %"}, {"measurement": "% of Cells with 1 to 4 Nuclei M4", "setting": "[5]", "result": "1.3 ^↓ %"}, {"measurement": "CBPI", "setting": "[5]", "result": 1.792}, {"measurement": "Replication Index (%)", "setting": "[5]", "result": 80.5, "unit": "%"}, {"measurement": "% of Cells with 1 to 4 Nuclei M1", "setting": "[6]", "result": "10.8 ^↓ %"}, {"measurement": "% of Cells with 1 to 4 Nuclei M2", "setting": "[6]", "result": "79.0 ^↑ %"}, {"measurement": "% of Cells with 1 to 4 Nuclei M3", "setting": "[6]", "result": 4.0, "unit": "%"}, {"measurement": "% of Cells with 1 to 4 Nuclei M4", "setting": "[6]", "result": 6.2, "unit": "%"}, {"measurement": "CBPI", "setting": "[6]", "result": 1.995}, {"measurement": "Replication Index (%)", "setting": "[6]", "result": 101.2, "unit": "%"}]}
